Experiments:
[1] = system: all cancer cell lines tested in the present study; parameters: method as in PMID 24075210; details: cited from earlier work
HepG2 cells = system: HepG2 cells; parameters: method as in PMID 31360210; details: cited from earlier work
CEM-ADR5000 cells = system: CEM-ADR5000 cells; parameters: method as in PMID 31360210; details: cited from earlier work
CCRF-CEM leukemia cells = assay: Resazurin reduction assay (RRA), 72 h; assay type: cell-based; details: Homo sapiens, 72 h incubation
Excerpt: (§1) Cell lines used in this work included drug-sensitive and drug-resistant phenotypes of earlier reported origin. They were all provided by Prof. Dr. Thomas Efferth from his cell lines collection; they have being used in cytotoxicity screening by our team for a decade. These include two hematological cancer cell lines, namely, the drug-sensitive CCRF-CEM leukemia cell line and its multidrug-resistant P-gp-over-expressing subline CEM/ADR5000 cells and […] carcinoma cell lines, namely, U87.MG glioblastoma cell line and its EGFR-transfected U87.MGΔEGFR subline, HCT116 (p53^+/+) colon cancer cell line and its knockout clone HCT116 (p53^−/^−), and MDA-MB-231-pcDNA3 breast cancer cell line and its BCRP-transfected multidrug-resistant MDA-MB-231-BCRP clone 23 cell line, as well as the normal AML12 hepatocytes, used to compare with HepG2 liver cancer cells.
(§2) The RRA was applied to evaluate the cytotoxicity of botanicals, the isolated phytochemicals (1–5, 7, and 8), and doxorubicin on the cell growth as reported earlier. Cells treated with various samples at different concentrations were incubated for 72 h in humidified 5% CO2 atmosphere at 37°C. Cells were further coloured with resazurin and incubated for 1–2 h; the fluorescence was further measured with an Infinite M2000 Pro™ plate reader (Tecan, Crailsheim, Germany) at 544 nm as the excitation wavelength and 590 nm as the emission wavelength. The IC50 values represented the concentrations of the sample required to inhibit 50% of cell proliferation and were calculated from a calibration curve by linear regression using Microsoft Excel 2007 [29].

U87MG glioblastoma cells = assay: Resazurin reduction assay (RRA), 72 h; assay type: cell-based; details: Homo sapiens, U-87 MG, 72 h incubation
Excerpt: as §1, §2

[2] = system: HCT116 (p53-/-) colon cancer cells; assay: Resazurin reduction assay (RRA), 72 h; assay type: cell-based; details: Homo sapiens, HCT-116, 72 h incubation
Excerpt: as §1, §2

[3] = system: MDA-MB-231-pcDNA breast cancer cells; assay: Resazurin reduction assay (RRA), 72 h; assay type: cell-based; details: 72 h incubation
Excerpt: as §1, §2

[4] = system: MDA-MB-231-BCRP breast cancer cells; assay: Resazurin reduction assay (RRA), 72 h; assay type: cell-based; details: 72 h incubation
Excerpt: as §1, §2

[5] = system: CEM/ADR5000 leukemia cells (P-gp-overexpressing); assay: Resazurin reduction assay (RRA), 72 h; assay type: cell-based; details: Homo sapiens; CEM/ADR5000, 72 h incubation
Excerpt: as §1, §2

[6] = system: U87MG.ΔEGFR glioblastoma cells; assay: Resazurin reduction assay (RRA), 72 h; assay type: cell-based; details: 72 h incubation
Excerpt: as §1, §2

[7] = system: HCT116 (p53+/+) colon adenocarcinoma cells; assay: Resazurin reduction assay (RRA), 72 h; assay type: cell-based; details: Homo sapiens, HCT-116, 72 h incubation
Excerpt: as §1, §2

normal AML12 hepatocytes = assay: Resazurin reduction assay (RRA), 72 h; assay type: cell-based; details: for IC50: Mus musculus, AML12 normal hepatocytes, 72 h incubation; for Selectivity index: IC50 normal AML12 hepatocytes divided by IC50 HepG2
Excerpt: as §1, §2

[8] = system: HepG2 hepatocarcinoma cells; assay: Resazurin reduction assay (RRA), 72 h; assay type: cell-based; details: Homo sapiens; HepG2, 72 h incubation
Excerpt: as §1, §2

[9] = system: caspases 3/7 in CCRF-CEM cells; assay: Caspase-Glo 3/7 assay; assay type: cell-based; details: 6 h, compared to untreated cells
Protocol: (§3) Different concentrations of HRB and compound 1 were used to treat CCRF-CEM cells for 6 h. The activities of caspases were determined using Caspase-Glo 3/7, Caspase-Glo 8, and Caspase-Glo 9 Assay kits (Promega, Mannheim, Germany) by measuring the luminescence using an Infinite M2000 ProTM plate reader (Tecan), as reported previously.

[10] = system: reactive oxygen species in CCRF-CEM cells; assay: ROS production (H2DCFH-DA staining, flow cytometry); assay type: cell-based; details: 24 h
Protocol: Various concentrations of HRB and triterpenoid 1 were used to treat CCRF-CEM cells (1 × 10^6 cells); DMSO (solvent control); or hydrogen peroxide (H2O2; positive control). After 24 h incubation in humidified 5% CO2 atmosphere at 37°C, the production of ROS was evaluated using 2′,7′-dichlorodihydrofluorescein diacetate (H2DCFH-DA) (Sigma-Aldrich) staining, as described earlier.

[11] = system: caspase 8 in CCRF-CEM cells; assay: Caspase-Glo 8 assay; assay type: cell-based; details: 6 h, compared to untreated cells
Protocol: as §3

CCRF-CEM cells [12] = assay: Apoptosis by annexin V/PI staining; assay type: cell-based; details: 24 h, 2 × IC50
Protocol: The CCRF-CEM cells (1 × 10^6; 1 ml) were also treated with HRB, compound 1 and doxorubicin for 24 h (in humidified 5% CO2 atmosphere at 37°C), and apoptosis was further assessed by flow cytometry using the flouresceinisothiocynate- (FITC-) conjugated annexin V/PI assay kit (eBioscience™Annexin V; Invitogen, San Diego, USA), as previously published. Briefly, treated cells were centrifuged at 1200 rpm for 5 min, then washed twice with ice-cold PBS, resuspended in 500 µl binding buffer, and stained with 5 µl FITC-conjugated annexin V ([…]) and 10 µl PI ([…]). After 15 min incubation at room temperature (RT) in the dark, cells were analyzed using a BD Accury C6 Flow Cytometer (BD Biosciences). Cells stained with only annexin V were evaluated as being in early apoptosis. Cells stained with both annexin V and propidium iodide were evaluated as being in late apoptosis or in a necrotic stage.

CCRF-CEM cells [13] = assay: Flow cytometric cell cycle distribution (propidium iodide); assay type: cell-based; details: 24 h
Protocol: Various concentrations of botanical HRB, phytochemical 1, and doxorubicin or DMSO (solvent control) were used to treat CCRF-CEM cells (1 × 10^6 cells). Cells were further incubated for 24 h in humidified 5% CO2 atmosphere at 37°C and analyzed using a BD Accury C6 Flow Cytometer (BD Biosciences, Heidelberg, Germany) by measuring the propidium iodide fluorescence of individual nucleus, as described earlier. Experiments were conducted thrice independently with three parallel measurements.

[14] = system: 9 tested cancer cell lines; assay: Resazurin reduction assay (RRA), whole panel; assay type: cell-based; details: for IC50: whole cell line panel, 72 h, read-out: IC50 in the cancer cells tested; for cytotoxic effect over the panel (in words): 9 tested cancer cell lines
Excerpt: as §1, §2

[15] = system: caspase 9 in CCRF-CEM cells; assay: Caspase-Glo 9 assay; assay type: cell-based; details: 6 h, compared to untreated cells
Protocol: as §3

K562 leukemia cells = system: K562 leukemia cells; parameters: method as in PMID 31479710; details: cited from earlier work

IC50 (CCRF-CEM leukemia cells) [µM] | IC50 (U87MG glioblastoma cells) [µM] | IC50 [2] [µM] | IC50 [3] [µM] | IC50 [4] [µM] | IC50 [5] [µM] | IC50 [6] [µM] | IC50 [7] [µM] | IC50 [8] [µM] | Compound | IC50 (normal AML12 hepatocytes) [µM] | cytotoxic effect over the panel (in words) [14] | further results
 |  |  |  |  |  |  |  |  | cudraxanthone I |  |  | IC50 [1]: < 10 µM
 |  |  |  |  |  |  |  |  | C=C(C)[C@@H]1CC[C@]2(C(=O)O)CC[C@]3(C)[C@H](CC[C@@H]4[C@@]5(C)CC[C@H](O)C(C)(C)[C@@H]5CC[C@]43C)[C@@H]12 [Compound 6, betulinic acid] |  |  | IC50 (HepG2 cells): 44.2 µM; IC50 (CEM-ADR5000 cells): 7.65 µM
14.4 ± 0.53 | 16.2 ± 1.09 | 44.2 ± 3.21 | 16.5 ± 0.74 | 15 ± 1.17 | 18.3 ± 1.56 | 14.7 ± 1.55 | 17.4 ± 1.84 | 21.7 ± 3.18 | C[C@H]1C(=O)CC[C@@H]2[C@]1(C)CC[C@H]1[C@@]2(C)CC[C@@]2(C(=O)O)C3CC(C)(C)CC[C@]3(C)CC[C@]12C (stereo partly drawn) [Compound 1, trichadonic acid] | 47.3 ± 0.81 |  | increase of caspases 3/7 activity [9]: 2.52 fold; ROS production ([10]; 7.22 µM): 12.35%; ROS production ([10]; 57.76 µM): 68.12%; ROS production ([10]; 2 × IC50): ≤ 68.12%; increase of caspase 8 activity [11]: 2.62 fold; annexin V (+)/PI (+) cells (CCRF-CEM cells [12]): 52.5%; cell cycle arrest (phase, in words) (CCRF-CEM cells [13]): cell cycle arrest in the Go/G1 phase; cells in sub-G0/G1 phase (CCRF-CEM cells [13]; 1/4 × IC50): 1.86%; cells in sub-G0/G1 phase (CCRF-CEM cells [13]; 2 × IC50): 17.40%; IC50 [14]: 14.4 to 44.2 µM; increase of caspase 9 activity [15]: 2.23 fold
19.9 ± 2.12 | 106 ± 6.74 | > 154 | > 154 | 20.4 ± 1.17 | 23.2 ± 1.66 | 30.4 ± 2.91 | 40.2 ± 3.09 | 32.4 ± 3.72 | O=c1c2cc(O)c(O)cc2oc2cc(O)cc(O)c12 [Compound 4, 1,3,6,7-tetrahydroxyxanthone] | 45.4 ± 3.52 | selective cytotoxic effects | Selectivity index (normal AML12 hepatocytes): 1.40
16.8 ± 0.96 | 74.4 ± 4.75 | > 165 | 43.8 ± 3.47 | 33.6 ± 1.99 | 53 ± 3.08 | 45 ± 5.22 | 46.7 ± 3.38 | 44.2 ± 2.65 | COc1cccc2c(=O)c3cc(O)ccc3oc12 [Compound 3, 2-hydroxy-5-methoxyxanthone] | > 165 | selective cytotoxic effects | 
16.3 ± 2.12 | 35.5 ± 3.28 | > 85.5 | 36.9 ± 2.73 | 30.5 ± 1.88 | 43.5 ± 2.97 | 30.6 ± 3.14 | 37.8 ± 2.92 | 31.3 ± 1.19 | COc1cc(C2Oc3ccc4c(=O)c5ccccc5oc4c3OC2CO)cc(OC)c1O (stereo not drawn) [Compound 8, 3′-hydroxymethyl-2′-(4″-hydroxy-3″,5″-dimethoxyphenyl)-5′,6′:5,6-(xanthone)-1′,4′-dioxane] | > 85.5 | selective cytotoxic effects | 
 |  |  |  |  |  |  |  |  | C[C@H]1C(=O)CC[C@@H]2[C@]1(C)CC[C@H]1[C@@]2(C)CC[C@@]2(C)C3CC(C)(C)CC[C@]3(C)CC[C@]12C (stereo partly drawn) [Compound 2, fridelan-3-one] |  |  | IC50 [14]: > 100 µM
23.3 ± 1.46 | 29.7 ± 1.77 | > 91.7 | 20.7 ± 1.32 | 22.2 ± 2.88 | 54 ± 4.38 | 12.7 ± 0.75 | > 91.7 | 25.2 ± 1.69 | COc1cc(C2Oc3ccc4c(=O)c5c(O)cc(O)cc5oc4c3OC2CO)cc(OC)c1O (stereo not drawn) [Compound 7, 3′-hydroxymethyl-2′-(4″-hydroxy-3″,5″-dimethoxyphenyl)-5′,6′:5,6-(6,8-dihydroxyxanthone)-1′,4′-dioxane] | 20.9 ± 1.17 | selective cytotoxic effects | Selectivity index (normal AML12 hepatocytes): 0.83
 |  |  |  |  |  |  |  |  | OO [H2O2, Hydrogen peroxide, reference compound] |  |  | ROS levels ([10]; 50 µM): 94.30%

Compound | IC50 (CCRF-CEM leukemia cells) [µM] | IC50 (U87MG glioblastoma cells) [µM] | IC50 [2] [µM] | IC50 [3] [µM] | IC50 [4] [µM] | IC50 [5] [µM] | IC50 [6] [µM] | IC50 [7] [µM] | IC50 [8] [µM] | IC50 (normal AML12 hepatocytes) [µM] | cytotoxic effect over the panel (in words) [14] | further results
COc1cccc2c1C(=O)c1c(O)c3c(c(O)c1C2=O)C[C@@](O)(C(=O)CO)C[C@@H]3O[C@H]1C[C@H](N)[C@H](O)[C@H](C)O1 [Doxorubicin, reference compound] | 0.02 | 0.26 ± 0.03 | 1.78 ± 0.08 | 0.13 ± 0.01 | 0.79 ± 0.08 |  | 0.98 ± 0.07 |  | 4.56 ± 0.48 | 52.9 ± 4.09 |  | cell cycle arrest (phase, in words) (CCRF-CEM cells [13]): S and G2/M phase arrest
O=c1c2ccc(O)c(O)c2oc2cc(O)cc(O)c12 [Compound 5, 1,3,5,6-tetrahydroxyxanthone] | 38.6 ± 2.11 | 61.4 ± 3.39 | 112 ± 8.49 | 75.2 ± 4.88 | 62.9 ± 5.32 | 38.5 ± 4.07 | 59 ± 6.01 | 75.5 ± 6.1 | 64.7 ± 5.77 | 150 ± 7.03 |  | cytotoxic effect against K562 (K562 leukemia cells): 12.98 µg/mL; IC50 (K562 leukemia cells; read-out: cytotoxic effect against K562): 49.9 µM
